This passage reports melting point results from a melting point compilation (Tetko et al.).

`COc1cccc(-n2ccnc2S)c1`: the melting point lay in the range of 149 to 151 °C.

On to `COc1ccc(C(C)=O)cc1CC(=O)O`, for which the melting point lay within 122 to 124 °C. `CCc1cc(=O)n2c([nH]c3ccccc32)c1C#N` displayed a melting point of 244 to 246 °C. The value for `O=C(O)C(Oc1ccc(Cl)cc1Br)c1ccccc1` (stereo not given) was 135 to 137 °C; that for `Nc1ccccc1N1C(=O)CCC1=O` was 231 to 233 °C; that for `O=C(Nc1ccccc1I)C(F)(F)F` was 105 to 107 °C. The value for `Cn1c(=O)oc2cc(Br)ccc21` was 144 to 146 °C.

As for `O=C(O)c1cnc2c(cnn2Cc2cccnc2)c1`, the melting point is 248 to 250 °C. With `CC(C)Cn1c(S)nc2scc(-c3cccs3)c2c1=O`, the melting point is 236 to 238 °C. In the case of `CC1(c2ccsc2)CC(=O)NC1=O` (stereo not given), the melting point lay within 96 to 98 °C. The molecule `COc1ccccc1Cn1cnc2cc(C)c(C)cc21` had a melting point of 126 to 128 °C. Molecule `CC(Br)C(=O)c1ccc(Oc2ccccc2)cc1` (stereo not given) displayed a melting point of 86 to 88 °C. Next, `COC(=O)C1CCc2[nH]ncc2C1` (stereo not given): 79 to 81 °C; `CC1(c2ccccc2)NC(=O)N(N)C1=O` (stereo not given): 169 to 171 °C. `COc1ccc(CNC(=O)C2CCNCC2)cc1` registered a melting point of 118 to 120 °C. Molecule `CC(C)(C)OC(=O)c1ccc(C#N)cc1` yielded a melting point of 74 to 76 °C. For `CC(C)(C#N)S(=O)(=O)c1ccc(Br)cc1`, the melting point was in the range of 118 to 120 °C. For the molecule `COC(=O)C(C#N)=Cc1cccc(F)c1`, the melting point lay within 107 to 109 °C. Turning to `CCCn1ccnc1S`, the melting point was 119 to 121 °C. In turn, `CS(=O)(=O)c1ccc(OCCBr)cc1` returned a melting point of 100 to 102 °C. Next, `Cc1cc(C)c(Nc2nnc(S)s2)c(Cl)c1`: 198 to 200 °C; `Nc1nnc(CC2CC2)o1`: 141 to 143 °C; `Cc1c(I)cccc1[N+](=O)[O-]`: 34 to 36 °C.

The molecule `CCNc1ccc(S(=O)(=O)C(F)F)cc1N` registered a melting point of 115 to 117 °C. Turning to `COc1ccc(C(C)=O)cc1-c1cccc(C(F)(F)F)c1`, the melting point lay within 76 to 78 °C.

For the molecule `O=C(O)c1ccc(COCC(F)(F)F)cc1`, the melting point fell in the range of 149 to 151 °C. The molecule `Cc1c(S(N)(=O)=O)sc2c(Cl)cccc12` returned a melting point of 261 to 263 °C. Regarding `O=C(O)c1csc(-c2cc(Br)cs2)n1`, the melting point is 229 to 231 °C. Regarding `COC(=O)C(C)(O)c1ccncc1` (stereo not given), the melting point lay within 104 to 106 °C. The molecule `O=C(NCO)c1ccc(Cl)cc1` returned a melting point of 145 to 147 °C.

Take `O=CC(Br)C=Nc1cnc(Br)cn1` (stereo not given): the melting point lay within 177 to 179 °C. The value for `O=C(O)c1cnc2ccsc2c1` was 259 to 261 °C; that for `ClCc1cnn(-c2ccccc2)c1` was 65 to 69 °C; that for `O=C(CC1CCOCC1)c1ccccc1` was 60 to 62 °C. `CCOC(=O)c1cnc2ccc(C)cc2c1Cl` registered a melting point of 62 to 64 °C.

As for `CC1(c2ccc([N+](=O)[O-])cc2)NC(=O)NC1=O` (stereo not given), the melting point was 235 to 237 °C. Take `N=C(N)c1ccc(N2CCCC2)cn1`: the melting point lay in the range of 209 to 211 °C. The value for `COc1cc(C=O)ccc1OCc1c(C)cc(C(C)(C)C)cc1C` was 139 to 141 °C. Molecule `O=C(O)c1cccc(S(=O)(=O)NC2CCCC2)c1` came in with a melting point of 209 to 211 °C. Next, `CN(C)C(=O)c1csc(C(=O)CCl)c1`: 142 to 144 °C; `Sc1nnc(-c2ccccc2Br)[nH]1`: 195 to 197 °C. Next, `O=C(O)C=Cc1cn(-c2ccccc2)nc1-c1ccc(F)cc1`: 229 to 231 °C; `O=C(c1cnoc1)c1ccccc1O`: 113 to 115 °C; `Nc1cc(-c2cccc(Br)c2)ncn1`: 229 to 231 °C. In turn, `Oc1nc(O)c2c(n1)CCC2` came in with a melting point of 324 to 326 °C. As for `COc1cccc(C(=O)c2cccnc2)c1`, the melting point was in the range of 72 to 74 °C. The value for `O=C(O)CCc1nnc(-c2ccccc2I)o1` was 84 to 86 °C; that for `Cc1c(NS(=O)(=O)c2ccc(N)c(N)c2)c(=O)n(-c2ccccc2)n1C` was 233 to 235 °C.

The molecule `O=C(O)CC(Br)C(=O)c1ccc(Cl)cc1` (stereo not given) returned a melting point of 113 to 117 °C. The value for `O=S(=O)(Cl)c1ccc(OCC(F)F)c2ccccc12` was 115 to 117 °C; that for `CC(=O)c1ccc(S(=O)(=O)CC(=O)O)cc1F` was 149 to 151 °C; that for `NC(=O)c1cc(F)ccc1Br` was 152 to 154 °C. The value for `CCc1nc2ccccc2c(C(=O)O)c1C` was 190 to 192 °C; that for `Cc1nc2c(F)cccc2c(Cl)c1C` was 95 to 97 °C. `O=C(O)CCOc1ccc(Oc2ccccc2)cc1`: the melting point was 118 to 120 °C. `Nc1ccc(NC(=O)CCN2C(=O)CNC2=O)cc1`: the melting point fell in the range of 234 to 236 °C.

With `O=C(O)c1cc(S(=O)(=O)Cl)c(F)cc1Br`, the melting point lay within 148 to 150 °C. For the molecule `NC1(c2nc(C(=O)O)c[nH]2)CCC1`, the melting point was in the range of 273 to 275 °C. Regarding `COc1ccc(C=O)c([N+](=O)[O-])c1`, the melting point lay in the range of 91 to 93 °C. Take `CS(=O)(=O)NC1CCC(O)CC1` (stereo not given): the melting point is 149 to 151 °C. Next, `Nc1cccc(OCC(=O)N2CCCC2)c1`: 101 to 103 °C; `CC1CNC(=O)N(c2ccccc2)C1=O` (stereo not given): 174 to 176 °C. The molecule `O=C(CCl)N(c1ccccc1)C1CCS(=O)(=O)C1` (stereo not given) yielded a melting point of 208 to 210 °C. `O=C(O)C=CC1CC1` yielded a melting point of 68 to 70 °C. As for `COC(=O)c1c(-c2ccc(F)cc2)csc1N`, the melting point was in the range of 135 to 137 °C.

In turn, `Cc1ccc(S(=O)(=O)NCCC(=O)O)cc1C` returned a melting point of 126 to 128 °C. Next, `O=S(=O)(Cl)c1cc2c(cc1Cl)OCCO2`: 139 to 141 °C. Take `CC1(c2ccccc2)NC(=O)N(NC(=O)CCl)C1=O` (stereo not given): the melting point fell in the range of 150 to 152 °C. Take `O=C1NC(=O)C(c2cc(Br)ccc2F)N1` (stereo not given): the melting point was 194 to 196 °C.

Consider `O=C(O)c1cccc2c1C(=O)c1ccccc1C2=O`, for which the melting point was 293 to 295 °C. Molecule `CCCC=C(C#N)C(=O)O` came in with a melting point of 96 to 98 °C. `O=S1(=O)CCC(Br)CC1` showed a melting point of 127 to 129 °C. Molecule `O=C(O)c1cnc(-c2ccc3c(c2)CCO3)s1` returned a melting point of 215 to 217 °C. For the molecule `c1ccc(-c2nc[nH]n2)nc1`, the melting point was in the range of 159 to 161 °C. The value for `Cc1c(Cl)cc(N)cc1Cl` was 55 to 57 °C; that for `CC(C)(C)OC(=O)CNC(=O)CCl` was 66 to 68 °C; that for `CCCCn1c(N)c(NC2CCCC2)c(=O)[nH]c1=O` was 250 to 252 °C. With `NC(=NO)c1cccs1`, the melting point fell in the range of 81 to 83 °C. The value for `Nc1ccc(N2CCNC(=O)C2)nc1` was 136 to 138 °C. The molecule `CN(c1ccc(OCC(=O)O)cc1)S(=O)(=O)c1cccs1` gave a melting point of 145 to 147 °C. Regarding `CC(C)(C)C(N)CN1CCc2ccccc2C1` (stereo not given), the melting point lay within 62 to 64 °C.

Consider `CNC(=O)c1ccc(NC)c([N+](=O)[O-])c1`, for which the melting point lay in the range of 207 to 209 °C. Next, `C/C(=N\O)c1cccc(NC(=O)c2ccc(F)cc2)c1`: 196 to 198 °C; `CC1(c2ccc(C(=O)O)cc2)NC(=O)NC1=O` (stereo not given): 279 to 281 °C. `O=C1CN(S(=O)(=O)c2cccc([N+](=O)[O-])c2)CCN1`: the melting point lay within 217 to 219 °C.

In general, melting point refers to the temperature of the solid-liquid transition.
